Measured values taken from EP0303391B1, “Optical isomers of a spiroquinuclidine derivative” (State of Israel Represented by the Prime Minister's Office …, priority 1987, dated 1989).
Read-outs that look alike come from different tables or passages of the source.

Experiments:
M₁ receptors = target: T1, M₁ receptors (Rattus norvegicus, UniProt P08482); experiment: biochemical; format: binding; conditions: for a:c: ratio Ki(3H-PZ):Ki(3H-CD)
T1 sequence (P08482 1-460): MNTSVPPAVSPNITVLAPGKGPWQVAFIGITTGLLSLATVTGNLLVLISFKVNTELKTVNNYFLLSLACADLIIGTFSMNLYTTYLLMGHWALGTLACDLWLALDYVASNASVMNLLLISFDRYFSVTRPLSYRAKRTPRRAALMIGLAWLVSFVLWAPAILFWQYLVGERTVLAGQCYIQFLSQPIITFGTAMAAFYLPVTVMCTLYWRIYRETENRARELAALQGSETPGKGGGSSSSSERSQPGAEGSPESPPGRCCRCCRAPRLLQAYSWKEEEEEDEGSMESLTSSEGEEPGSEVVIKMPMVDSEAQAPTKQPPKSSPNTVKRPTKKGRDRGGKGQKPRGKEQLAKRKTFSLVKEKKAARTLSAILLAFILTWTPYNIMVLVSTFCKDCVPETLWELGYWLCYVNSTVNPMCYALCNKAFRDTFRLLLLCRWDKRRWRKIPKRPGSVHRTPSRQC

[1] = tested on: isolated guinea pig ileum; experiment: Isolated guinea pig ileum induced contraction; format: cell-based
muscarinic receptors [2] = format: binding, rat; conditions: for Ki: rat forebrain homogenates, mean ± spread (n), Ki = IC50 ÷ (1 + C/KD), read-out: Ki(^3H-QNB)
muscarinic receptors [3] = experiment: Displacement of 3H-cis-dioxolane (3H-CD) from rat forebrain homogenates; format: binding
LD50 in mice = format: in vivo; conditions: mouse, in vivo, HCl salts, read-out: LD₅₀
Source text: (§1) The LD₅₀ in mice of (+)-, (-) and [for comparison] There are no significant differences in the toxicity of the tested compounds.

[4] = tested on: AF64A and saline-injected rats; experiment: Passive avoidance (step-through) retention in AF64A and saline-injected rats; format: in vivo, Sprague-Dawley rats; conditions: for Retention latency after 72 hours: 0.2mg./kg. per os post-training, cut-off 600 secs., nine rats per group; for net latencies of AF64A-treated groups compared with the group treated with double distilled water: p < 0.005 for (-)-, p < 0.05 for (±)-cis
Source text: Ethylcholine aziridinium ion (hereinafter denoted AF64A) is a selective presynaptic cholinergic neurotoxin, which on intracerebroventricular injection in rats induces persistent cholinergic hypofunction that mimics the cortical and hippocampal cholinegic deficiency and the cognitive impairments reported in SDAT. Accordingly, the possibility of reversal of the AF64A-induced effects by (-)- and [for comparison] (±)-cis-2-methylspiro(1,3-oxathiolan-5,3′)quinuclidine in the passive avoidance task was studied. In this experiment, the results of which are reported in Table 4, we investigated the effect of these substances (0.2mg./kg/., per os) on the retention after 72 hours of an inhibitory learning (passive avoidance-step through) task in AF64A and saline-injected rats, using a post-training drug treatment paradigm. The surgery carried out on the test animals (Sprague-Dawley rats raised by Charles River) was similar to that described in our prior published European Patent Application No. 0205247. The behavioral studies were performed one month after surgery.
The behavioral testing procedure comprised two phases, 1 and 2. In a pretest training procedure each rat was individually placed in a small lighted front compartment of a two-compartment box. After a 60 secs. familiarization/adaptation period, the door separating the two compartments was opened and a clock activated. The rat's latency to enter the large dark compartment of the box (to step-through) was measured. Immediately following entry into the dark compartment, the rat was subjected to an inescapable scrambled foot shock applied to the grid floor (0.6mA for 3 secs.). Sixty secs. after the termination of the shock, at the end of the training procedure, the rat was removed from the dark compartment and double distilled water, (-)- and (±)-cis-2-methylspiro(1,3-oxathiolan-5,3′)quinuclidine were administered per os. Rats were then returned to their home cage. Retention of the passive avoidance task was measured […]. after training by again placing the rat in the lighted front compartment, and after a 60 secs. adaptation period, measuring the latency to enter the dark compartment. The test session ended when a rat entered the dark compartment or after 600 secs. had elapsed. […]

mice = experiment: LD50 in mice; format: in vivo; conditions: HCl salts
Source text: as §1

[5] = index of M1 versus M2 selectivity

In the case of CC1OC2(CS1)CN1CCC2CC1 (racemic) [(±)-trans-isomer, (±)-trans-2-methylspiro(1,3-oxathiolan-5,3')quinuclidine], the “a:b” value (M₁ receptors) is reported as 0.59, the “a:c” value (M₁ receptors; index of M1 versus M2 selectivity, listed as 3) is reported as 8.1 and the Ki (M₁ receptors; read-out: Ki(^3H-PZ)) is reported as 14.6 ± 2.9 µM. The type of activity [1] was “agonist”.
Work on CC(=O)OCC[N+](C)(C)C [Acetylcholine] yielded an EC50 ([1]; Cavia porcellus, induced contraction of isolated guinea pig ileum) of 0.05 µM.
For O=C1CCCN1CC#CCN1CCCC1 [Oxotremorine], the Ki (M₁ receptors; Ki(^3H-PZ)) was 0.6 µM, the “a:c” value (M₁ receptors; [5]) was 625 and the “a:b” value (M₁ receptors; ratio Ki(3H-PZ):Ki(3H-QNB), index of M1 versus M2 selectivity) was 0.35. For the same compound, the Ki (muscarinic receptors [2]) was 1.7 ± 0.3 µM and the Ki (muscarinic receptors [3]; footnote *: expressed in M x 10^-10) was 0.00096 ± 0.00042 µM.
For C[N+](C)(C)CC#CCOC(=O)Nc1cccc(Cl)c1 [McN-A-343], the “a:b” value (M₁ receptors) was 0.35, the Ki (M₁ receptors; Ki(^3H-PZ)) was 4.9 µM and the “a:c” value (M₁ receptors; [5]) was 12.25. The Ki (muscarinic receptors [2]) was 14.2 ± 1.41 µM and the Ki (muscarinic receptors [3]; mean ± spread (n), Ki = IC50 ÷ (1 + C/KD)) was 0.4 ± 0.1 µM.
For CC1OC2(CS1)CN1CCC2CC1 (racemic) [(±)-cis-isomer, (±)-cis-2-methylspiro(1,3-oxathiolan-5,3')quinuclidine], the LD50 (LD50 in mice; female mice) was 40.8 mg/kg, the LD50 (LD50 in mice; male mice) was 45 mg/kg and the “a:b” value (M₁ receptors) was 0.10. The Ki (M₁ receptors; Ki(^3H-PZ)) was 0.6 µM, the “a:c” value (M₁ receptors; [5]) was 1.4 and the type of activity [1] was “agonist”. The “Retention latency after 72 hours” value ([4]; AF64A-treated rats) was 407.9 (±72.1) seconds, the “net latencies of AF64A-treated groups compared with the group treated with double distilled water” value ([4]; AF64A-treated rats) was “significantly longer” and the “Retention latency after 72 hours” value ([4]; saline-treated rats) was 478.2 (±65.7) seconds.
In the case of CC1OC2(CS1)CN1CCC2CC1 (single isomer, unassigned; (-)) [(-)-cis-isomer, (-)-cis-2-methylspiro(1,3-oxathiolan-5,3')quinuclidine], the LD₅₀ (mice; female mice) is reported as 40 mg/kg, the LD₅₀ (mice; male mice) is reported as 35 mg/kg and the Ki (M₁ receptors; Ki(^3H-PZ)) is reported as 1.1 µM. For the same compound, the “times more potent in ³H-QNB displacement than its racemate” value (muscarinic receptors [2]; relative to (±)-cis-isomer) was 2.2, the type of activity [1] was “agonist” and the “Retention latency after 72 hours” value ([4]; AF64A-treated rats) was 563.5 (±23.6) seconds. For the same compound, the “net latencies of AF64A-treated groups compared with the group treated with double distilled water” value ([4]; AF64A-treated rats) was “significantly longer” and the “Retention latency after 72 hours” value ([4]; saline-treated rats) was 474 (±61.3) seconds.
CC1OC2(CS1)CN1CCC2CC1 (single isomer, unassigned; (+)) [(+)-cis-isomer, (+)-cis-2-methylspiro(1,3-oxathiolan-5,3')quinuclidine] showed an LD50 (LD50 in mice; female mice) of 45 mg/kg, an LD50 (LD50 in mice; male mice) of 39.1 mg/kg and a Ki (M₁ receptors; Ki(^3H-PZ)) of 9.6 µM. For the same compound, the type of activity [1] was “inactive as agonist”.
